Data set [1] relates to rat brain mitochondria. The experiment in a line: MDA production in brain mitochondria, substances applied alone. Type of data set: cell-based. As to conditions: 100 µM, vs untreated mitochondria. As for the experimental part: To the mitochondria, 0.3 mL of 0.2% thiobarbituric acid and 0.25 mL of sulfuric acid (0.05 M) were added, and the mixture was boiled for 30 min. After boiling, the tubes were placed on ice, and 0.4 mL of n-butanol was added to each tube, which was then centrifuged at 3500× g for 10 min. The amount of MDA was determined spectrophotometrically at 532 nm.

In data set [2] the test system is rat brain microsomes. The experiment in a line: MDA production in brain microsomes, substances applied alone. Format: cell-based. As to conditions: 100 µM, vs untreated microsomes. As for the experimental part:
The brain was homogenized in nine volumes of 0.1 M Tris buffer containing 0.1 mM dithiothreitol, 0.1 mM phenylmethylsulfonyl fluoride, 0.2 mM EDTA, 1.15% KCl, and 20% (v/v) glycerol (pH 7.4). The resulting homogenate was centrifuged twice at 17,000× g for 30 min. The supernatants from the two centrifugations were pooled and centrifuged twice at 100,000× g for 1 h. The pellet was then frozen in 0.1 M Tris buffer.

Data set [3] concerns rat brain mitochondria. The experiment in a line: GSH level in brain mitochondria, substances applied alone. As to conditions: 100 µM, vs untreated mitochondria.
In data set [4] the test system is rat brain microsomes. As to conditions: 100 µM combined with Fe2+/AA.
Data set [5] has as its target T1, human recombinant MAOB enzyme (hMAOB) (Homo sapiens, UniProt P27338).
T1 construct: purchased
T1 sequence (P27338 1-520): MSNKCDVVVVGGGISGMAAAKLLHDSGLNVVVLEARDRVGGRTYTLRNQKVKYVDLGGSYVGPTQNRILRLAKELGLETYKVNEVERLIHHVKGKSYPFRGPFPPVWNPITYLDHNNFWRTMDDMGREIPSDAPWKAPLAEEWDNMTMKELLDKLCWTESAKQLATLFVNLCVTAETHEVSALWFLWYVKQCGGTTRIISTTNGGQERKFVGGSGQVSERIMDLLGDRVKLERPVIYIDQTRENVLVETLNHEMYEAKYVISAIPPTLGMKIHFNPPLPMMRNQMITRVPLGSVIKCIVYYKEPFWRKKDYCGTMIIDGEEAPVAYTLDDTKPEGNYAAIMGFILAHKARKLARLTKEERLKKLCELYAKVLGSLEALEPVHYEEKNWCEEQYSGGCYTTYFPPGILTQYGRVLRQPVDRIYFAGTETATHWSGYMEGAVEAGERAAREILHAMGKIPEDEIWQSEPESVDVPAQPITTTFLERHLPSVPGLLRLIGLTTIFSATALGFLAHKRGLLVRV
Description: Human recombinant MAOB enzyme activity (Amplex Red, fluorimetric). Format: biochemical. As to conditions: for inhibition at 1 µM: read-out: hMAOB inhibitory effect (decrease of enzyme activity); for IC50: read-out: IC50 (EC50), (µM ± SD) hMAOB. As for the experimental part:
(§1) Working solutions of the test substances, reagents, and human recombinant MAOA/B enzyme (hMAOA/B) were prepared in a reaction buffer according to the manufacturer’s instructions. The substances were applied at a final concentration of 1 µM. The substances, together with hMAOA/B, were placed in a 96-well plate (eight samples for each substance), and the plate was placed in an incubator for 30 min (in the dark, at 37 °C). The activity of recombinant human MAOA/B was determined fluorimetrically at two wavelengths (570 nm and 690 nm) with fluorimetric readings performed in a Synergy 2 Microplate Reader. Tyramine hydrochloride was used as the substrate. The activity was determined by detecting H2O2 production. This production is reported by binding to horseradish peroxidase using N-acetyl-3,7-dihydroxyphenoxazine (AmplexRed, Thermo Fisher Scientific, Waltham, MA, USA).

Data set [6] has as its target T2, human recombinant MAOA enzyme (hMAOA) (Homo sapiens, UniProt P21397).
T2 construct: purchased
T2 sequence (P21397 1-527): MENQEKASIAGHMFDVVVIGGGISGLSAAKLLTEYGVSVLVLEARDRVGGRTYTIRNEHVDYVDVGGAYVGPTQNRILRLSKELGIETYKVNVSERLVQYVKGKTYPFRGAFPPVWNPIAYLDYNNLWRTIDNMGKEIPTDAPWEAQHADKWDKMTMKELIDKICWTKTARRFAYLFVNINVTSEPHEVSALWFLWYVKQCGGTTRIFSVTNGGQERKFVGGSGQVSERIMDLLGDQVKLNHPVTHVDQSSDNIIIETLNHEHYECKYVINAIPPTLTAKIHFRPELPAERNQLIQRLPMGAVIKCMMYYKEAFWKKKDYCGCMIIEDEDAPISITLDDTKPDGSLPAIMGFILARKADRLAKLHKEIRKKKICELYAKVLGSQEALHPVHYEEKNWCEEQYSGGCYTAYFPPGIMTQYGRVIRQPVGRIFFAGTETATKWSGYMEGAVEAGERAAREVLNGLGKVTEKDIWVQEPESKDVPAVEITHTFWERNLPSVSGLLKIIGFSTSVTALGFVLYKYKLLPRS
The experiment in a line: Human recombinant MAOA enzyme activity (Amplex Red, fluorimetric). As to conditions: for IC50: read-out: IC50 (EC50), (µM ± SD) hMAOA. Type of data set: biochemical. As for the experimental part:
as §1

Data set [7] has as its system rat brain mitochondria. As to conditions: 100 µM combined with t-BuOOH.
Data set [8] relates to Rotenone-induced model of Parkinsonism in mice. The experiment in a line: Rotenone-induced model of Parkinsonism in mice, brain histopathology (H&E). Format: in vivo. Here is the method:
The histological morphology of the mouse brains, mainly the areas of the […] and cerebellum, was examined microscopically.
The samples from mouse brains were fixed in 10% buffered neutral formalin solution. The fixed materials were dehydrated in ascending grades of alcohol: 50°, 60°, 70°, 80°, 90°, 96°, and absolute alcohol. After dehydration, the samples were cleared with xylene and embedded in paraffin blocks. Sections with a thickness of 5 μm were prepared using a rotary microtome. The sections were attached to slides using histological glue, processed with xylene, rehydrated using a descending alcohol row–absolute alcohol, 96°, 90°, 80°, 70°, 60°, and 50°, and finally stained with Hematoxylin-Eosin [57]. Microscopic examination and photography were performed using a Levenhuk D740T light microscope with an integrated camera.

The subject of a further data set is MAOB. Also noted: method as in PMID 36500572. As to conditions: 1 μmol; cited from earlier work.
[9] abbreviates: 100 µM with 6-OHDA 150 µM, compared to the toxic agent.
[10] abbreviates: 150 µM, vs untreated synaptosomes.

On to `CCOC(=O)c1cc(-c2ccc(Br)cc2)n(CCCC(=O)N/N=C/c2ccccc2)c1C` [15a, (E)-Ethyl 1-(4-(2-benzylidenehydrazinyl)-4-oxobutyl)-5-(4-bromophenyl)-2-methyl-1H-pyrrole-3-carboxylate], for which, in the data set on rat brain mitochondria [1], the “increase of MDA production in brain mitochondria vs control” value is reported as 59%. In addition, the “increase of MDA production in brain microsomes vs control” value with rat brain microsomes [2] was determined as 52%. The “decrease of GSH level in brain mitochondria vs control” value (shortened to “decrease of GSH level … vs control”) in the data set on rat brain mitochondria [3] amounted to 15%. Also, the “antioxidant effect vs Fe2+/AA (MDA production)” value in the data set on rat brain microsomes [4] is “most prominent effect on MDA production”. In [5], the “SI: hMAOB selectivity index = IC50(hMAOA)/IC50(hMAOB)” value is given as more than 289 and the half-maximal inhibitory concentration (IC50) amounted to 0.692 µM. The inhibition at 1 µM in [5] (1 µM, vs control (pure hMAOB)) was found to be 50%. The IC50 in [6] was more than 200 µM.
With `CCOC(=O)c1cc(-c2ccc(Br)cc2)n(CCCC(=O)N/N=C/c2cccc(F)c2)c1C` [15d, (E)-Ethyl 5-(4-bromophenyl)-1-(4-(2-(3-fluorobenzylidene)hydrazinyl)-4-oxobutyl)-2-methyl-1H-pyrrole-3-carboxylate], the “increase of MDA production in brain mitochondria vs control” value with rat brain mitochondria [1] was 57%. The “increase of MDA production in brain microsomes vs control” value in the data set on rat brain microsomes [2] turned out to be 63%. In addition, in the data set with rat brain mitochondria [7], the “neuroprotective effect vs t-BuOOH (GSH level and MDA production)” value was “most pronounced neuroprotection”. Besides, in the data set with rat brain synaptosomes (setting [9]), the “preservation of GSH level vs 6-OHDA” value is on record as 20% and the “preservation of synaptosomal viability vs 6-OHDA” value was determined as 15%. Also, the “decrease of GSH level … vs control” value in the data set with rat brain mitochondria [3] is on record as 10%. Besides, the “brain histology, in combination with rotenone” value in data set [8] (mice treated with rotenone plus 15d, light microscopy) is given as “preserved histoarchitectonics”. Moreover, the “brain histology, treated alone” value in data set [8] (mouse, in vivo) was “no microscopically visible changes”. Also, in data set [5], the “SI: hMAOB selectivity index = IC50(hMAOA)/IC50(hMAOB)” value was more than 471 and the half-maximal inhibitory concentration (IC50) was 0.425 µM. Moreover, the inhibition at 1 µM in data set [5] (1 µM, vs control (pure hMAOB)) was found to be 60%. Besides, in data set [6], the IC50 was more than 200 µM.
Consider `C=C(C)[C@H]1Cc2c(ccc3c2O[C@@H]2COc4cc(OC)c(OC)cc4[C@@H]2C3=O)O1` [rotenone, reference compound], for which the “brain histology, rotenone alone” value in [8] (cerebral cortex of mice treated with rotenone) is “distinct degenerative-necrotic changes”.
Turning to `CCOC(=O)c1cc(-c2ccc(Br)cc2)n(CCCC(=O)NN)c1C` [compound 15, Ethyl 5-(4-bromophenyl)-1-(4-hydrazinyl-4-oxobutyl)-2-methyl-1H-pyrrole-3-carboxylate], the “increase of MDA production in brain mitochondria vs control” value with rat brain mitochondria [1] turned out to be 73%. Further, in the data set on rat brain mitochondria [3], the “decrease of GSH level … vs control” value came out at 25%.
As to `CCOC(=O)c1cc(-c2ccc(Br)cc2)n(CCCC(=O)N/N=C/c2ccc(N(C)C)cc2)c1C` [15f, (E)-Ethyl 5-(4-bromophenyl)-1-(4-(2-(4-(dimethylamio)benzylidene)hydrazinyl)-4-oxobutyl)-2-methyl-1H-pyrrole-3-carboxylate], in the data set with rat brain mitochondria [1], the “increase of MDA production in brain mitochondria vs control” value stood at 69%. The “increase of MDA production in brain microsomes vs control” value with rat brain microsomes [2] worked out at 67%. The “decrease of GSH level … vs control” value in the data set on rat brain mitochondria [3] was found to be 15%. In data set [5], the “SI: hMAOB selectivity index = IC50(hMAOA)/IC50(hMAOB)” value is given as 1.16 and the half-maximal inhibitory concentration (IC50) is 0.71 µM. Also, the “hMAOB inhibitory effect (decrease of enzyme activity)” value in data set [5] (1 µM, vs control (pure hMAOB)) was 45%. Besides, the “hMAOA inhibitory effect (decrease of enzyme activity)” value in [6] (1 µM, vs control (pure hMAOA)) is on record as 40%. Moreover, in [6], the 50% inhibitory concentration (IC50) came out at 0.821 µM.
Take `CCOC(=O)c1cc(-c2ccc(Br)cc2)n(CCC(=O)NN)c1C` [compound 12]: the MAOB inhibition in the data set with MAOB was 50%.
For `CCOC(=O)c1cc(-c2ccc(Br)cc2)n(CC(=O)NN)c1C` [compound 11], the MAOB inhibition in the data set with MAOB is given as 26%.
With `CCOC(=O)c1cc(-c2ccc(Br)cc2)n(CCCC(=O)N/N=C/c2ccccc2O)c1C` [15b, (E)-Ethyl 5-(4-bromophenyl)-1-(4-(2-(2-hydroxybenzylidene)hydrazinyl)-4-oxobutyl)-2-methyl-1H-pyrrole-3-carboxylate], the “increase of MDA production in brain mitochondria vs control” value in the data set on rat brain mitochondria [1] came to 99%. Moreover, the “increase of MDA production in brain microsomes vs control” value in the data set with rat brain microsomes [2] stood at 121%. The “decrease of GSH level … vs control” value in the data set on rat brain mitochondria [3] came out at 25%.
Regarding `CCOC(=O)c1cc(-c2ccc(Br)cc2)n(CCCC(=O)N/N=C/c2ccc(OC)cc2)c1C` [15e, (E)-Ethyl 5-(4-bromophenyl)-1-(4-(2-(4-methoxybenzylidene)hydrazinyl)-4-oxobutyl)-2-methyl-1H-pyrrole-3-carboxylate], the “increase of MDA production in brain mitochondria vs control” value in the data set with rat brain mitochondria [1] was 119%. Also, the “increase of MDA production in brain microsomes vs control” value in the data set with rat brain microsomes [2] was determined as 149%. In the data set with rat brain mitochondria [3], the “decrease of GSH level … vs control” value came to 20%.
On to `NCCc1cc(O)c(O)cc1O` [6-OHDA, 6-hydroxydopamine, reference compound], for which, in the data set with rat brain synaptosomes (setting [10]), the “decrease of GSH level in synaptosomes by the toxic agent alone” value amounted to 50% and the “decrease of synaptosomal viability by the toxic agent alone” value is 50%.
In the case of `CCOC(=O)c1cc(-c2ccc(Br)cc2)n(CCCC(=O)N/N=C/c2cccc(C=O)c2)c1C` [15g, (E)-Ethyl 5-(4-bromophenyl)-1-(4-(2-(3-formylbenzylidene)hydrazinyl)-4-oxobutyl)-2-methyl-1H-pyrrole-3-carboxylate], in the data set with rat brain mitochondria [1], the “increase of MDA production in brain mitochondria vs control” value came out at 143%. Also, the “increase of MDA production in brain microsomes vs control” value in the data set with rat brain microsomes [2] was 158%. For the same molecule, the “decrease of GSH level … vs control” value with rat brain mitochondria [3] was 20%.
Take `CCOC(=O)c1cc(-c2ccc(Br)cc2)n(CCCC(=O)N/N=C/c2ccccc2F)c1C` [15c, (E)-Ethyl 5-(4-bromophenyl)-1-(4-(2-(2-fluorobenzylidene)hydrazinyl)-4-oxobutyl)-2-methyl-1H-pyrrole-3-carboxylate]: in the data set with rat brain mitochondria [1], the “increase of MDA production in brain mitochondria vs control” value came out at 110%. Also, the “increase of MDA production in brain microsomes vs control” value in the data set with rat brain microsomes [2] came out at 132%. The “decrease of GSH level … vs control” value in the data set with rat brain mitochondria [3] came to 25%.
With `CCOC(=O)c1cc(-c2ccc(Br)cc2)n(CCCC(=O)O)c1C` [compound 13, 4-(5-(4-Bromophenyl)-3-(ethoxycarbonyl)-2-methyl-1H-pyrrole-1-yl)butanoic acid], in the data set on rat brain mitochondria [1], the “increase of MDA production in brain mitochondria vs control” value is 79%. Moreover, the “increase of MDA production in brain microsomes vs control” value in the data set on rat brain microsomes [2] was found to be 93%. Further, the “decrease of GSH level … vs control” value with rat brain mitochondria [3] was 15%.

As a reminder, the IC50 is the concentration that inhibits the measured activity by half.
